Experimental data reported in PubChem BioAssay (NCI).
Values joined by “and” are separate entries in the source; they are usually repeats but may differ in a detail not shown here. Identical values can stand only once.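 Cells were grown in 96-well plates and exposed to each compound for 48 hours at five concentrations; endpoints were interpolated linearly between bracketing concentrations, or set to the highest concentration if not reached. Here, GI50 denotes the concentration required for 50% inhibition of growth. The concentration for full growth arrest is given as TGI.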

Legend:
Experiment in all cases: NCI anticancer screen, dose series, 48 h
MDA-N = test system: MDA-N
DLD-1 colon = test system: DLD-1 colon
M19-MEL melanoma = test system: M19-MEL melanoma
XF 498 CNS = test system: XF 498 CNS
RXF-631 renal = test system: RXF-631 renal
KM20L2 colon = test system: KM20L2 colon
DMS 273 small cell lung = test system: DMS 273 small cell lung
DMS 114 small cell lung = test system: DMS 114 small cell lung
LXFL 529 NSCLC = test system: LXFL 529 NSCLC

Structure (SMILES): CN1CCN(CCCN2c3ccccc3Sc3ccc(Cl)cc32)CC1
- GI50 (MDA-N): 42.1 µM
- TGI (MDA-N): 61.4 µM

Structure (SMILES): O=C1C(c2ccccc2)=C(c2ccccc2)C(c2ccc(Sc3ccc(C4=C(c5ccccc5)C(=O)C(c5ccccc5)=C4c4ccccc4)cc3)cc2)=C1c1ccccc1
- TGI (DLD-1 colon): > 100 µM
- TGI (M19-MEL melanoma): > 100 µM
- TGI (XF 498 CNS): > 100 µM
- TGI (RXF-631 renal): > 100 µM
- TGI (KM20L2 colon): > 100 µM
- TGI (DMS 273 small cell lung): > 100 µM
- TGI (DMS 114 small cell lung): > 100 µM

Structure (SMILES): COc1ccc2c(c1)[n+]([O-])c(/C(C)=N/NC(=O)c1ccccc1O)c(C)[n+]2[O-]
- TGI (LXFL 529 NSCLC): > 100 µM
- TGI (DLD-1 colon): > 100 µM
- TGI (M19-MEL melanoma): > 100 µM
- TGI (XF 498 CNS): > 100 µM
- TGI (RXF-631 renal): > 100 µM
- TGI (KM20L2 colon): > 100 µM
- TGI (DMS 114 small cell lung): > 100 µM

Structure (SMILES): COc1cc(O)c2c(c1)C(=O)C1=C(C2=O)C(O)C[C@@](C)(O)C1 (stereo not given in full)
- TGI (LXFL 529 NSCLC): 2.1 µM
- TGI (DLD-1 colon): 2.28 µM
- TGI (M19-MEL melanoma): 1.66 µM
- TGI (XF 498 CNS): 3.46 µM
- TGI (KM20L2 colon): 11.6 µM
- TGI (DMS 273 small cell lung): 5.04 µM
- TGI (DMS 114 small cell lung): 3.26 µM

Structure (SMILES): Cc1ccc(S(=O)(=O)OCCOCCOCCOCCOCCOS(=O)(=O)c2ccc(C)cc2)cc1
- TGI (LXFL 529 NSCLC): > 100 µM
- TGI (DLD-1 colon): > 100 µM
- TGI (M19-MEL melanoma): > 100 µM
- TGI (RXF-631 renal): 82.2 µM
- TGI (KM20L2 colon): > 100 µM
- TGI (DMS 273 small cell lung): > 100 µM

Structure (SMILES): OCC1CCCC1O (stereo not given)
- TGI (MDA-N): > 100 µM

Structure (SMILES): CC(=O)OCC1OC(n2ncc(=O)[nH]c2=O)C(OC(C)=O)C1OC(C)=O (stereo not given)
- TGI (MDA-N): > 100 µM

Structure (SMILES): COc1cccc(C2SCc3nc4ccccc4n32)c1 (stereo not given)
- TGI (DLD-1 colon): > 100 µM
- TGI (M19-MEL melanoma): > 100 µM
- TGI (DMS 273 small cell lung): > 100 µM
- TGI (DMS 114 small cell lung): > 100 µM

Structure (SMILES): Cc1ccc(C2=Nc3ccccc3S(=O)C(c3ccc4c(c3)OCO4)C2)cc1 (stereo not given)
- TGI (LXFL 529 NSCLC): > 10 µM
- TGI (DLD-1 colon): 30.7 µM
- TGI (M19-MEL melanoma): > 100 µM
- TGI (XF 498 CNS): 36.1 µM
- TGI (KM20L2 colon): 33 µM
- TGI (DMS 273 small cell lung): > 100 µM

Structure (SMILES): O=C1C(=O)N(c2ccc(Cl)cc2)C(=O)C(=Nc2cccc3c(=O)[nH][nH]c(=O)c23)C1c1nc2ccccc2o1 (stereo not given)
- TGI (LXFL 529 NSCLC): > 100 µM
- TGI (DLD-1 colon): > 100 µM
- TGI (M19-MEL melanoma): > 100 µM
- TGI (RXF-631 renal): > 100 µM
- TGI (KM20L2 colon): > 100 µM
- TGI (DMS 273 small cell lung): > 100 µM

Structure (SMILES): CCCCCCCCCCOC(=O)NCCC
- TGI (LXFL 529 NSCLC): > 100 µM
- TGI (DLD-1 colon): > 100 µM
- TGI (M19-MEL melanoma): > 100 µM
- TGI (XF 498 CNS): 43.6 µM
- TGI (RXF-631 renal): > 100 µM
- TGI (KM20L2 colon): 62.2 µM
- TGI (DMS 273 small cell lung): 54.9 µM

Structure (SMILES): O=C(O)c1c2c(cc3c(=O)cc(-c4ccccc4)oc13)CCCC2
- TGI (LXFL 529 NSCLC): > 100 µM
- TGI (DLD-1 colon): > 100 µM
- TGI (XF 498 CNS): > 100 µM
- TGI (RXF-631 renal): > 100 µM
- TGI (KM20L2 colon): > 100 µM
- TGI (DMS 273 small cell lung): > 100 µM

Structure (SMILES): CC[PH+](CC)CC.CC[PH+](CC)CC.[Au]
- GI50 (LXFL 529 NSCLC): 2.31 µM
- TGI (LXFL 529 NSCLC): 6.33 µM
- GI50 (DLD-1 colon): 5.52 µM
- TGI (DLD-1 colon): 18.9 µM
- GI50 (M19-MEL melanoma): 4.06 µM
- TGI (M19-MEL melanoma): 31.9 µM
- GI50 (XF 498 CNS): 11 µM
- TGI (XF 498 CNS): 26.4 µM
- GI50 (KM20L2 colon): 17.3 µM
- TGI (KM20L2 colon): 33.3 µM
- GI50 (DMS 273 small cell lung): 17 µM
- TGI (DMS 273 small cell lung): 38.3 µM

Structure (SMILES): C=C1C(=O)C2=CC1CCC(=O)C1(C)CCC(OC(C)=O)C(C)(C)C1CC2O (stereo not given)
- TGI (MDA-N): 4.41 µM

Structure (SMILES): O=C(O)Cc1ccc(N=Nc2c(O)c(C(=O)O)cc3ccccc23)cc1
- TGI (MDA-N): > 100 µM

Structure (SMILES): O=C1CC(CC(OCc2ccccc2)C(OCc2ccccc2)C(COCc2ccccc2)OCc2ccccc2)CC(=O)N1 (stereo not given)
- GI50 (MDA-N): > 100 µM and 12.5 µM
- TGI (MDA-N): > 100 µM and 27.7 µM

Structure (SMILES): O=C(CSSCC(=O)Nc1ccc(Br)cc1)Nc1ccc(Br)cc1
- TGI (LXFL 529 NSCLC): 31.2 µM
- TGI (DLD-1 colon): 35.9 µM
- TGI (M19-MEL melanoma): 34.2 µM
- TGI (XF 498 CNS): 34.5 µM
- TGI (KM20L2 colon): 29.2 µM
- TGI (DMS 273 small cell lung): 30.8 µM
- TGI (DMS 114 small cell lung): 28.2 µM

Structure (SMILES): O=[N+]([O-])C=C1c2ccccc2-c2ccccc21
- TGI (LXFL 529 NSCLC): 28.2 µM
- TGI (DLD-1 colon): 7.71 µM
- TGI (KM20L2 colon): 34.5 µM

Structure (SMILES): O=[N+]([O-])c1oc2ccc3ccccc3c2c1CCO
- TGI (MDA-N): 4.07 µM

Structure (SMILES): CN(/N=C\c1ccnc2ccccc12)c1ccccc1
- TGI (LXFL 529 NSCLC): 79.7 µM
- TGI (DLD-1 colon): 64.6 µM
- TGI (M19-MEL melanoma): 54 µM
- TGI (XF 498 CNS): 47.5 µM
- TGI (DMS 273 small cell lung): 39.7 µM
- TGI (DMS 114 small cell lung): 48.7 µM

Structure (SMILES): O=C(CC1(O)C(=O)Nc2c(Cl)cc(Cl)cc21)c1ccc(F)cc1 (stereo not given)
- TGI (LXFL 529 NSCLC): > 100 µM
- TGI (DLD-1 colon): > 100 µM
- TGI (M19-MEL melanoma): 34 µM
- TGI (XF 498 CNS): 39.9 µM
- TGI (RXF-631 renal): > 100 µM
- TGI (KM20L2 colon): > 100 µM
- TGI (DMS 273 small cell lung): > 100 µM
- TGI (DMS 114 small cell lung): 58.9 µM

Structure (SMILES): COc1ccc(OC)c(/C=C/c2ccnc3ccccc23)c1
- TGI (MDA-N): 0.286 µM

Structure (SMILES): CC(C)=NNC(=S)NC12CC3CC(CC(C3)C1)C2
- TGI (LXFL 529 NSCLC): > 100 µM
- TGI (M19-MEL melanoma): > 100 µM
- TGI (XF 498 CNS): > 100 µM
- TGI (RXF-631 renal): > 100 µM
- TGI (KM20L2 colon): > 100 µM
- TGI (DMS 273 small cell lung): > 100 µM

Structure (SMILES): c1ccc2c(CNCCCCCCCCNCc3cccc4ccccc34)cccc2c1
- TGI (LXFL 529 NSCLC): 3.22 µM
- TGI (DLD-1 colon): 4.07 µM
- TGI (M19-MEL melanoma): 3.12 µM
- TGI (XF 498 CNS): 3.24 µM
- TGI (KM20L2 colon): 3.22 µM
- TGI (DMS 273 small cell lung): 3.68 µM
- TGI (DMS 114 small cell lung): 3.48 µM

Structure (SMILES): Cc1ccc(Sc2ccccc2N)cc1
- TGI (LXFL 529 NSCLC): 32.9 µM
- TGI (M19-MEL melanoma): > 100 µM
- TGI (RXF-631 renal): > 100 µM
- TGI (KM20L2 colon): > 100 µM
- TGI (DMS 273 small cell lung): > 100 µM
- TGI (DMS 114 small cell lung): > 100 µM

Structure (SMILES): N#CCc1nnc(N)o1
- TGI (LXFL 529 NSCLC): > 100 µM
- TGI (DLD-1 colon): > 100 µM
- TGI (M19-MEL melanoma): > 100 µM
- TGI (XF 498 CNS): > 100 µM
- TGI (RXF-631 renal): > 100 µM
- TGI (KM20L2 colon): > 100 µM
- TGI (DMS 273 small cell lung): > 100 µM

Structure (SMILES): COC12OCCN(C)C1=CC(=O)C1(C)N=NCC12 (stereo not given)
- TGI (LXFL 529 NSCLC): > 100 µM
- TGI (DLD-1 colon): > 100 µM
- TGI (M19-MEL melanoma): > 100 µM
- TGI (DMS 273 small cell lung): > 100 µM
- TGI (DMS 114 small cell lung): > 100 µM

Structure (SMILES): CCOC(=O)C1SC(=Nc2ccc(Cl)cc2Cl)N=C1C (stereo not given)
- TGI (LXFL 529 NSCLC): > 100 µM
- TGI (DLD-1 colon): > 100 µM
- TGI (M19-MEL melanoma): > 100 µM
- TGI (XF 498 CNS): 94.1 µM
- TGI (KM20L2 colon): > 100 µM
- TGI (DMS 273 small cell lung): > 100 µM
- TGI (DMS 114 small cell lung): > 100 µM
